{"source": "paper PMC12534982", "about": "(Journal of Experimental & Clinical Cancer Research : CR, 2025)", "key": {"[1]": {"test_system": "human colorectal cancer cell lines", "experiment": "Cell viability assay (CellTiter-Glo)", "format": "cell-based", "settings": "dose-dependent; 48 h"}, "[2]": {"test_system": "tumor-derived intestinal organoids", "experiment": "Organoid viability (CellTiter-Glo 3D)", "format": "cell-based, human", "settings": "96 h"}, "SW620 cells": {"test_system": "SW620 cells", "experiment": "Intracellular nucleotides, orotate and DHO by HPLC–MS/MS", "format": "cell-based, human", "settings": "25 µM, 24 h", "protocol": "Cancer cells (2.2 × 10^6) were cultured in 100-mm Petri dishes and treated with DMSO or NK-A 17E-233I (25 µM) for 24 h. Nucleotides and related compounds were extracted from cell pellets by treatment with 0.5 M trichloroacetic acid (TCA) followed by neutralization and solvent evaporation as detailed in [30]. Dry extracts were stored at -70°C until further analysis. Protein pellets sedimented after TCA precipitation were re-dissolved in 1 mL of 100 mM NaOH, 5% SDS by incubation at 95 °C for 5 min, followed by complete re-dissolution through several syringe strokes with a 23G needle. The concentration of the re-dissolved protein was quantified using the Pierce™ BCA Protein Assay Kit (Thermo Fisher Scientific), with the amount of the metabolites referenced to protein content.\nOn the day of metabolite analysis, the dry extracts were re-dissolved in 150 µL of water. Nucleotides, DHO and orotate concentrations were determined using HPLC–MS/MS using Acquity UPLC-Xevo™ TQ Mass Spectrometer (Waters, MA, USA), following the methodology described in [30]. The m/z transitions for DHO and orotate were 156.87 > 113.09 and 154.90 > 111.00, respectively. The identification of all compounds was based on retention time and specific ion transitions. The calibration curves generated with aqueous standards were processed concurrently, and the concentrations were derived from peak area interpolation using TargetLynx software (Waters, MA, USA)."}, "colorectal cancer cells [3]": {"test_system": "colorectal cancer cells", "experiment": "Neutral comet assay", "format": "cell-based, human", "settings": "25 µM", "protocol": "The assay was conducted as described in [20]. Cancer cells (2–3 × 10^5) were cultured in 6-well plates and treated with DMSO or NK-A 17E-233I (25 µM) for 1 or 24 h. After treatment, the cells were harvested and suspended in Comet Low Melting Agarose (LMA; Trevigen). Once the LMA solidified, the glass slides (CometSlide) were placed in a cell lysis buffer at 4 °C overnight. Electrophoresis was performed using a comet assay electrophoresis system (21 V for 40 min). The slides were subsequently washed and stained with SYBR® Gold dye (Invitrogen) in the dark for 30 min. DNA migration was observed using a fluorescence microscope (AF6000, Leica) equipped with a HCX PL APO 63x (NA = 1.4) oil objective. Comet tail lengths were measured with ImageJ/FIJI, analyzing over 100 cells per each condition."}, "colorectal cancer cells [4]": {"test_system": "colorectal cancer cells", "experiment": "DNA damage immunostaining (γ-H2AX, Rad51)", "format": "cell-based, human", "settings": "25 µM, 24 h", "protocol": "To evaluate DNA damage, cancer cells (1 × 10^3) were cultured in 8-well collagen IV Ibidi chamber slides (#80,822; Ibidi) for 24 h, treated with DMSO or NK-A 17E-233I (25 µM) for an additional 24 h, and then fixed. For assessing the integrity of the cytoskeleton, neuronal cells (BFCNs) were cultured on coverslips for 14 days, while non-neuronal cells (cancer cells) were cultured on coverslips for 24 h. Both neuronal and non-neuronal cells were treated with DMSO or NK-A 17E-233I (1 µM) for 24 h, fixed, and permeabilized as described in [21]. Samples were then blocked (non-neuronal cells with 3% BSA in PBS-T and neuronal cells with 10% BSA in PBS-T) and incubated overnight at 4 °C with the appropriate primary antibodies. Following this, samples were washed with PBS-T and incubated for 1 h with Alexa-488 Phalloidin (#A12379; Invitrogen-ThermoFisher Scientific) to visualize F-actin, along with the corresponding secondary antibodies. The cells were mounted with Ibidi mounting medium containing 4',6-diamidino-2-phenylindole (DAPI, #50011; Ibidi) prior to imaging. […]\n(§1) The density of γ-H2AX, Rad51, ΔΨm, and oxidative stress in cancer cells was measured as described in [32], utilizing custom macros available as open access at Zenodo (https://zenodo.org/records/8387899) to obtain raw intensities and individual cell area."}, "colorectal cancer cells [5]": {"test_system": "colorectal cancer cells", "experiment": "Intracellular ATP levels (CellTiter-Glo)", "format": "cell-based, human", "settings": "25 µM", "method": "Luminescence readings were recorded with a Victor Multilabel Plate Reader (PerkinElmer Life Sciences, Massachusetts, USA)."}, "colorectal cancer cells [6]": {"test_system": "colorectal cancer cells", "experiment": "Mitochondrial membrane potential (MitoTracker Red)", "format": "cell-based, human", "protocol": "Cancer cells (1 × 10^3) were cultured in 8-well collagen IV Ibidi chamber slides and treated with DMSO or NK-A 17E-233I (25 µM) for 24 h. The media was replaced with fresh media containing 100 nM MitoTracker Red dye to measure ΔΨm (1 mM stock; #M7512; Thermo Fisher Scientific) and 5 µM CellROX Deep Red Reagent to assess oxidative stress levels (2.5 mM stock; #C10422; Thermo Fisher Scientific) for 45 min. The cells were then fixed with 4% methanol-free PFA, washed with PBS, and mounted with Ibidi mounting medium containing 4',6-diamidino-2-phenylindole (DAPI) prior to imaging.\nas §1"}, "[7]": {"settings": "median [Minimum – Maximum], five experiments"}, "[8]": {"settings": "median [Minimum – Maximum], four experiments"}}}
{"smiles": "COc1cc(C)c(Oc2cc(C)cc(O)c2O)c(O)c1", "note": "[NK-A 17E-233I]", "values": [{"measurement": "viability", "setting": "[1]", "value": "reduced the viability"}, {"measurement": "sensitivity of tumor-derived organoids", "setting": "[2]", "value": "demonstrated sensitivity to NK-A 17E-233I in a dose-dependent manner"}, {"measurement": "levels of purine nucleotides", "setting": "SW620 cells", "value": "remained unchanged"}, {"measurement": "ADP amount", "setting": "SW620 cells; [7]", "value": "7,917 [5,048–9,389] pmoles/mg protein"}, {"measurement": "AMP + ADP + ATP amount", "setting": "SW620 cells; [7]", "value": "26,257 [24,352 – 27,848] pmoles/mg protein"}, {"measurement": "AMP amount", "setting": "SW620 cells; [7]", "value": "961 [405–2,739] pmoles/mg protein"}, {"measurement": "ATP amount", "setting": "SW620 cells; [7]", "value": "15,907 [14,173–21,694] pmoles/mg protein"}, {"measurement": "CDP amount", "setting": "SW620 cells; [7]", "value": "351 [143–504] pmoles/mg protein"}, {"measurement": "CMP + CDP + CTP amount", "setting": "SW620 cells; [7]", "value": "6,327 [6,028 – 10,285] pmoles/mg protein"}, {"measurement": "CMP amount", "setting": "SW620 cells; [7]", "value": "263 [220–707] pmoles/mg protein"}, {"measurement": "CTP amount", "setting": "SW620 cells; [7]", "value": "5,801 [5,142–9,519] pmoles/mg protein"}, {"measurement": "GDP amount", "setting": "SW620 cells; [7]", "value": "1,339 [1,008–1,566] pmoles/mg protein"}, {"measurement": "GMP + GDP + GTP amount", "setting": "SW620 cells; [7]", "value": "5,228 [4,902 – 7,797] pmoles/mg protein"}, {"measurement": "GTP amount", "setting": "SW620 cells; [7]", "value": "3,565 [3,407–6,418] pmoles/mg protein"}, {"measurement": "UDP amount", "setting": "SW620 cells; [7]", "value": "927 [867–1,161] pmoles/mg protein"}, {"measurement": "UMP amount", "setting": "SW620 cells; [7]", "value": "335 [81–424] pmoles/mg protein"}, {"measurement": "UTP amount", "setting": "SW620 cells; [7]", "value": "4,013 [3,397–6,651] pmoles/mg protein"}, {"measurement": "GMP amount", "setting": "SW620 cells; median [Minimum – Maximum], five experiments, undetectable treated as zero", "value": "156 [0–268] pmoles/mg protein"}, {"measurement": "DHO amount", "setting": "SW620 cells; [8]", "value": "26.5 [18.3–228.5] pmoles/mg protein"}, {"measurement": "Orotate amount", "setting": "SW620 cells; [8]", "value": "70.5 [61.7–137.1] pmoles/mg protein"}, {"measurement": "comet tails (DNA double-strand breaks)", "setting": "colorectal cancer cells [3]", "value": "longer comet tails"}, {"measurement": "intensity of γ-H2AX and Rad51", "setting": "colorectal cancer cells [4]", "value": "significant increase"}, {"measurement": "ATP production / proliferation with non-physiological uridine", "setting": "colorectal cancer cells [5]; 200 µM uridine, various time points", "value": "did not impact the production of ATP or cancer cell proliferation"}, {"measurement": "levels of ATP", "setting": "colorectal cancer cells [5]; up to 24 h", "value": "reduced"}, {"measurement": "mitochondrial membrane potential (ΔΨm)", "setting": "colorectal cancer cells [6]; HCT116, 25 µM, 24 h", "value": "significantly decreased"}, {"measurement": "mitochondrial membrane potential (ΔΨm)", "setting": "colorectal cancer cells [6]; different cancer cell lines (HT-29), 25 µM", "value": "decreased"}]}
